Measured values from patent US6426331B1, “Inhibitors of STAT function” (Tularik Inc., priority 1998, dated 2002).

Target: T1, STAT6 (Homo sapiens, UniProt P42226)
T1 sequence (P42226 1-847): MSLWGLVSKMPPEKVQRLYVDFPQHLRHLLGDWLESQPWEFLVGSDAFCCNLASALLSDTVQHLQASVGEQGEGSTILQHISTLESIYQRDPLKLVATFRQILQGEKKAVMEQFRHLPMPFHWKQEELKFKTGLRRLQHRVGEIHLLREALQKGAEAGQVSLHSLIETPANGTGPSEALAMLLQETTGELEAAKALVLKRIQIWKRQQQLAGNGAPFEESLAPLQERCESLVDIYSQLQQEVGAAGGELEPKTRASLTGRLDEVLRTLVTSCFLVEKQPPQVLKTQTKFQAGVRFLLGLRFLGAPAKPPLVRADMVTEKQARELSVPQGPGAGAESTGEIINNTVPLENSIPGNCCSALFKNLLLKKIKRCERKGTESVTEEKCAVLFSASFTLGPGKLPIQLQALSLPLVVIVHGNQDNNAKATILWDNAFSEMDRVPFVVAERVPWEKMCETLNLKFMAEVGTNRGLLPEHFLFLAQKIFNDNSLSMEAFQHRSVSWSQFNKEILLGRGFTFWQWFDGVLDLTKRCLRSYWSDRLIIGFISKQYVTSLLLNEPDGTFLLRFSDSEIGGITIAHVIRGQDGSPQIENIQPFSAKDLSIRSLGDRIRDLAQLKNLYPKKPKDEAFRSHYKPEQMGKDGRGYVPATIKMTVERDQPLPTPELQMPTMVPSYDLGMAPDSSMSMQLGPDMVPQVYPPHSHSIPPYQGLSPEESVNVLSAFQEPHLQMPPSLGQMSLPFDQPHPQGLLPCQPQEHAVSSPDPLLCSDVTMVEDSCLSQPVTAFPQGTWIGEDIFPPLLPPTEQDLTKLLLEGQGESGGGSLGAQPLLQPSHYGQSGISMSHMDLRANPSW
Test: Inhibition of STAT6 binding (duplex formation)
Conditions: STAT6 binding
Description: The compounds of the present invention can be evaluated for STAT binding activity using methods such as those described in U.S. Pat. No. 6,207,391 (for STAT6 binding). Other assays for STAT binding can be found in, for example, U.S. Pat. Nos. 5,618,693, 5,639,858 and 5,756,700.
Using methods similar to those described in Examples 1 and 2, the compounds provided in Table 1 were prepared and evaluated as inhibitors of STAT6 binding (duplex formation). The assay is described in U.S. Pat. No. 6,207,391, filed Mar. 31, 1998. In each of the tables below: a + symbol indicates and IC50 of >100 μM; a ++ symbol indicates and IC50 of 50-100 μM; a +++ symbol indicates and IC50 of 1-50 μM; and a ++++ symbol indicates and IC50 of <1.0 μM.

Row | Structure (SMILES) | IC50 (Table 4) [nM] | IC50 (Table 5) [nM]
1 | CC(=O)NCc1ccc(CN(C(=O)C2CCCN2C(=O)C(NC(=O)C=Cc2ccc(OP(=O)(O)O)cc2)C(C)(C)C)c2cccc(C(N)=O)c2)cc1 (centres unmarked) [drawing 70: 3-CONH2,4-CH2NHAc] | < 1000 | –
2 | CC(=O)NCc1ccc(N(Cc2ccc(C(N)=O)cc2)C(=O)C2CCCN2C(=O)C(NC(=O)C=Cc2ccc(OP(=O)(O)O)cc2)C(C)(C)C)cc1 (centres unmarked) [drawing 70: 4-CH2NHAc, 4-CONH2] | < 1000 | –
3 | CC(=O)NCc1ccc(CN(C(=O)C2CCCN2C(=O)C(NC(=O)C=Cc2ccc(OP(=O)(O)O)cc2)C(C)(C)C)c2ccc(C(N)=O)cc2)cc1 (centres unmarked) [drawing 70: 4-CONH2,4-CH2NHAc] | < 1000 | –
4 | CC(C)(C)C(NC(=O)C=Cc1ccc(OP(=O)(O)O)cc1)C(=O)N1CCCC1C(=O)N(Cc1ccc(I)cc1)c1ccccc1 (centres unmarked) [drawing 70: H, 4-I] | < 1000 | –
5 | CC(C)(C)C(NC(=O)C=Cc1ccc(OP(=O)(O)O)cc1)C(=O)N1CCCC1C(=O)N(Cc1ccc(-c2ccccc2)cc1)c1ccccc1 (centres unmarked) [drawing 70: H, 4-phenyl] | 1000 to 50000 | –
6 | CC(C)(C)c1ccc(CN(C(=O)C2CCCN2C(=O)C(NC(=O)C=Cc2ccc(OP(=O)(O)O)cc2)C(C)(C)C)c2ccccc2)cc1 (centres unmarked) [drawing 70: H, 4-t-butyl] | 1000 to 50000 | –
7 | CC(=O)NCc1cccc(CN(Cc2cccc(C(N)=O)c2)C(=O)C2CCCN2C(=O)C(NC(=O)C=Cc2ccc(OP(=O)(O)O)cc2)C(C)(C)C)c1 (centres unmarked) [drawing 71: 3-CONH2,3-CH2NHAc] | – | 1000 to 50000
8 | CC(=O)NCc1cccc(CN(Cc2ccc(C(N)=O)cc2)C(=O)C2CCCN2C(=O)C(NC(=O)C=Cc2ccc(OP(=O)(O)O)cc2)C(C)(C)C)c1 (centres unmarked) [drawing 71: 4-CONH2,3-CH2NHAc] | – | < 1000
9 | CC(=O)NCc1ccc(CN(Cc2ccc(C(N)=O)cc2)C(=O)C2CCCN2C(=O)C(NC(=O)C=Cc2ccc(OP(=O)(O)O)cc2)C(C)(C)C)cc1 (centres unmarked) [drawing 71: 4-CONH2,4-CH2NHAc] | – | < 1000
10 | CC(C)(C)C(NC(=O)C=Cc1ccc(OP(=O)(O)O)cc1)C(=O)N1CCCC1C(=O)N(Cc1ccc(C#N)cc1)Cc1ccc(C(N)=O)cc1 (centres unmarked) [drawing 71: 4-CONH2,4-CN] | – | < 1000
11 | CC(C)(C)C(NC(=O)C=Cc1ccc(OP(=O)(O)O)cc1)C(=O)N1CCCC1C(=O)N(Cc1ccccc1)Cc1ccc(C(N)=O)cc1 (centres unmarked) [drawing 71: 4-CONH2, H] | – | < 1000
